# Data reported in ChEMBL document CHEMBL1142427, “Cytotoxic triterpenoid saponins acylated with monoterpenic acid from Pithecellobium lucidum” (J Nat Prod, 2008).
# Key:
# Bel-7402 = experiment: Cytotoxicity against human Bel7402 cells after 96 hrs by MTT assay; assay type: functional, cell-based; conditions: Bel-7402, 96 h
# A549 = experiment: Cytotoxicity against human A549 cells after 96 hrs by MTT assay; assay type: functional, cell-based; conditions: A549, 96 h
# A2780 = experiment: Cytotoxicity against human A2780 cells after 96 hrs by MTT assay; assay type: functional, cell-based; conditions: A2780, 96 h
# BGC-823 = experiment: Cytotoxicity against human BGC823 cells after 96 hrs by MTT assay; assay type: functional, cell-based; conditions: BGC-823, 96 h
# HCT-8 = experiment: Cytotoxicity against human HCT8 cells after 96 hrs by MTT assay; assay type: functional, cell-based; conditions: HCT-8, 96 h
# [1] = Toxicity in rabbit erythrocytes assessed as hemolysis at 0.01 uM to 100 uM; assay type: cell-based, Oryctolagus cuniculus; conditions: erythrocyte
Structure (SMILES),IC50 (Bel-7402),IC50 (A549),IC50 (A2780),IC50 (BGC-823),IC50 (HCT-8),Activity [1]
C[C@H]1O[C@@H](OC[C@H]2O[C@@H](O[C@H]3CC[C@]4(C)[C@H]5CC=C6[C@@H]7CC(C)(C)[C@@H](O)C[C@]7(C(=O)O)[C@H](O)C[C@@]6(C)[C@]5(C)CC[C@H]4C3(C)C)[C@H](O)[C@@H](O)[C@@H]2O)[C@H](O[C@@H]2OC[C@@H](O)[C@H](O)[C@H]2O)[C@@H](O)[C@H]1O,> 10 µM,> 10 µM,> 10 µM,> 10 µM,> 10 µM,Non-toxic
C=C[C@@](C)(CC/C=C(\CO)C(=O)O[C@H]1C[C@]2(C(=O)O[C@@H]3O[C@H](CO)[C@@H](O)[C@H](O)[C@H]3O[C@@H]3O[C@@H](C)[C@H](O[C@@H]4O[C@@H](CO)[C@H](O)[C@H]4O)[C@@H](O[C@@H]4O[C@H](CO)[C@@H](O)[C@H](O)[C@H]4O)[C@H]3O)[C@H](O)C[C@]3(C)C(=CC[C@@H]4[C@@]5(C)CC[C@H](O[C@@H]6O[C@H](CO[C@@H]7O[C@H](C)[C@H](O)[C@H](O)[C@H]7O[C@@H]7OC[C@@H](O)[C@H](O)[C@H]7O)[C@@H](O)[C@H](O)[C@H]6O)C(C)(C)[C@@H]5CC[C@]43C)[C@@H]2CC1(C)C)O[C@@H]1O[C@H](C)[C@@H](O)[C@H](O)[C@H]1O,> 10 µM,> 10 µM,1.35 µM,> 10 µM,1.5 µM,Non-toxic
CC[C@@]1(O)C(=O)OCc2c1cc1n(c2=O)Cc2cc3ccccc3nc2-1 [CAMPTOTHECIN],12.5 µM,3.12 µM,0.28 µM,9.67 µM,3.15 µM,
C=C[C@@](C)(CC/C=C(\CO)C(=O)O[C@H]1C[C@]2(C(=O)O[C@@H]3O[C@H](CO)[C@@H](O)[C@H](O)[C@H]3O[C@@H]3O[C@@H](C)[C@H](O[C@@H]4O[C@@H](CO)[C@H](O)[C@H]4O)[C@@H](O[C@@H]4O[C@H](CO)[C@@H](O)[C@H](O)[C@H]4O)[C@H]3O)[C@H](O)C[C@]3(C)C(=CC[C@@H]4[C@@]5(C)CC[C@H](O[C@@H]6O[C@H](CO[C@@H]7O[C@H](C)[C@H](O)[C@H](O)[C@H]7O[C@@H]7OC[C@@H](O)[C@H](O)[C@H]7O)[C@@H](O)[C@H](O)[C@H]6NC(C)=O)C(C)(C)[C@@H]5CC[C@]43C)[C@@H]2CC1(C)C)O[C@@H]1O[C@H](C)[C@@H](O)[C@H](O)[C@H]1O [JULIBROSIDE J29],1.65 µM,1.8 µM,0.61 µM,1.9 µM,1.5 µM,Non-toxic
C=C[C@@](C)(CC/C=C(\CO)C(=O)O[C@H]1C[C@]2(C(=O)O[C@@H]3O[C@H](CO)[C@@H](O)[C@H](O)[C@H]3O[C@@H]3O[C@@H](C)[C@H](O[C@@H]4O[C@@H](CO)[C@H](O)[C@H]4O)[C@@H](O[C@@H]4O[C@H](C)[C@@H](O)[C@H](O)[C@H]4O)[C@H]3O)[C@H](O)C[C@]3(C)C(=CC[C@@H]4[C@@]5(C)CC[C@H](O[C@@H]6O[C@H](CO[C@@H]7O[C@H](C)[C@H](O)[C@H](O)[C@H]7O[C@@H]7OC[C@@H](O)[C@H](O)[C@H]7O)[C@@H](O)[C@H](O)[C@H]6O)C(C)(C)[C@@H]5CC[C@]43C)[C@@H]2CC1(C)C)O[C@@H]1O[C@H](C)[C@@H](O)[C@H](O)[C@H]1O [PITHELUCOSIDE A],> 10 µM,> 10 µM,> 10 µM,> 10 µM,> 10 µM,Non-toxic
C=C[C@](C)(O)CC/C=C(\CO)C(=O)O[C@H]1C[C@]2(C(=O)O[C@@H]3O[C@H](CO)[C@@H](O)[C@H](O)[C@H]3O[C@@H]3O[C@@H](C)[C@H](O[C@@H]4O[C@@H](CO)[C@H](O)[C@H]4O)[C@@H](O[C@@H]4O[C@H](CO)[C@@H](O)[C@H](O)[C@H]4O)[C@H]3O)[C@H](O)C[C@]3(C)C(=CC[C@@H]4[C@@]5(C)CC[C@H](O[C@@H]6O[C@H](CO[C@@H]7O[C@H](C)[C@H](O)[C@H](O)[C@H]7O[C@@H]7OC[C@@H](O)[C@H](O)[C@H]7O)[C@@H](O)[C@H](O)[C@H]6O)C(C)(C)[C@@H]5CC[C@]43C)[C@@H]2CC1(C)C [PITHELUCOSIDE B],2.54 µM,> 10 µM,1.23 µM,> 10 µM,> 10 µM,Non-toxic
C/C(=C\CO)CC/C=C(\CO)C(=O)O[C@H]1C[C@]2(C(=O)O[C@@H]3O[C@H](CO)[C@@H](O)[C@H](O)[C@H]3O[C@@H]3O[C@@H](C)[C@H](O[C@@H]4O[C@@H](CO)[C@H](O)[C@H]4O)[C@@H](O[C@@H]4O[C@H](CO)[C@@H](O)[C@H](O)[C@H]4O)[C@H]3O)[C@H](O)C[C@]3(C)C(=CC[C@@H]4[C@@]5(C)CC[C@H](O[C@@H]6O[C@H](CO[C@@H]7O[C@H](C)[C@H](O)[C@H](O)[C@H]7O[C@@H]7OC[C@@H](O)[C@H](O)[C@H]7O)[C@@H](O)[C@H](O)[C@H]6O)C(C)(C)[C@@H]5CC[C@]43C)[C@@H]2CC1(C)C [PITHELUCOSIDE C],7.56 µM,> 10 µM,1.66 µM,> 10 µM,4.24 µM,Non-toxic
